In data set [1] the test system is RS4;11 cells. Put plainly: Survival of lenti-transduced cells in presence of steroids with or without HSD inhibitor (CELLTITER-GLO). The data set is classed as cell-based, human. Particulars: HSD11B2-transduced RS4;11 cells; for Effect of HSD inhibitor on steroid protection of transduced cells: DEX or PRED, carbenoxolone 1 μM and 10 μM; for Reversal of protection against dexamethasone by HSD inhibitor / Reversal of protection against prednisolone by HSD inhibitor: posaconazole 1 μM, carbenoxolone 10 μM or 1 μM. On the technique in general: Cellular ATP, detected with luciferase, serves as a proxy for viable cell number.

Data set [2] concerns the target T1, HSD11B1 (Homo sapiens, UniProt P28845).
T1 construct: expressed in transfected cells
The data set can be described thus: Effect of HSD inhibitor on steroid degradation by HSD11B1-transduced stimulated leukocytes. The format is cell-based. The settings on record: posaconazole 7 μM.

Data set [3] has as its target T2, HSD11B2 (Homo sapiens, UniProt P80365).
T2 construct: expressed in transfected cells
T2 sequence (P80365 1-405): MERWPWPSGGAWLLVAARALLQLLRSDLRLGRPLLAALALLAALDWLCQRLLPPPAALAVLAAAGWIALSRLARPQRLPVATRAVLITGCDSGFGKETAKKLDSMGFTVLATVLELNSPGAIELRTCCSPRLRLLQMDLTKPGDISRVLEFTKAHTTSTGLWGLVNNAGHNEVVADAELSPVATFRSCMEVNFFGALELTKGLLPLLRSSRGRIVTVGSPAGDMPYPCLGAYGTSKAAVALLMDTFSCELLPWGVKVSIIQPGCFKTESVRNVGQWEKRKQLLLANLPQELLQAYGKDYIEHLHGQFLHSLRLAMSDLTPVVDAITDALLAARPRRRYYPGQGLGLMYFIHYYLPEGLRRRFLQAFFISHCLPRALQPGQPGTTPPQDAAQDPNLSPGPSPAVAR
Put plainly: Effect of HSD inhibitor on steroid degradation by HSD11B2-transduced stimulated leukocytes. The format is cell-based. The settings on record: posaconazole 7 μM.

Data set [4] has as its system stimulated leukocytes. Put plainly: Steroid degradation by lentivirally transduced stimulated leukocytes, steroid detected by ELISA. The format is cell-based, human.
For data set [5], the system named is stimulated leukocytes. Put plainly: Conversion of cortisol to cortisone by transduced stimulated leukocytes, UHPLC-Mass Spectrometry. The format is cell-based, human. The procedure: Human peripheral blood leukocytes (HPBL) were prepared by density gradient centrifugation of anti-coagulated human blood (Cincinnati Children's Hospital Cell Processing Core). HPBL were stimulated with CYTOSTIM™, inteleukin 2 (IL-2) in TEXMACS™ media (all reagents, Miltenyi Biotech) according to manufacturer's instructions for three days. […] After stimulation, the entire population of stimulated cells (“stimulated leukocytes”) were cryopreserved in cell freezing media which contained dimethyl sulfoxide (DMSO). Prior to experiments, cryopreserved stimulated leukocytes were thawed, washed twice and cultured in TEXMACS™ media supplemented with 10% (v/v) heat inactivated fetal bovine serum (HI-FBS, VWR). After an overnight incubation, typical cell viability post-thaw was greater than 95% as determined by Trypan blue dye exclusion. Post-thaw, cells were cultured overnight prior to transduction with lentivirus. […]
Viral copy number (VCN) was assessed on cell pellets by real-time polymerase chain reaction (RT-PCR) by extracting the genomic DNA and using primers and probes for the R-U5 region of the lentiviral vector. VCN was determined using a cGMP testing protocol conducted by the Translational Trials Support & Development Laboratory of Cincinnati Children's Hospital. […] To permit direct comparison of the intrinsic activity of each enzyme construct—independent of any variability of target cell transduction or number of transduced cells in an experimental arm—VCN values were combined with the number of live cells measured at the end of incubation to adjust data to reflect a uniform level of cells carrying the transgene.
Cortisol and cortisone levels in supernatants were quantified by the Michigan Regional Comprehensive Metabolomics Resource Core at the University of Michigan, Ann Arbor, Mich., in a delta 4 (D4-) steroid hormone assay using combined ultra-high pressure liquid chromatography and triple quadrapole (UHPLC-QQQ) mass spectrometry. […]

T1 sequence (P28845 whole entry): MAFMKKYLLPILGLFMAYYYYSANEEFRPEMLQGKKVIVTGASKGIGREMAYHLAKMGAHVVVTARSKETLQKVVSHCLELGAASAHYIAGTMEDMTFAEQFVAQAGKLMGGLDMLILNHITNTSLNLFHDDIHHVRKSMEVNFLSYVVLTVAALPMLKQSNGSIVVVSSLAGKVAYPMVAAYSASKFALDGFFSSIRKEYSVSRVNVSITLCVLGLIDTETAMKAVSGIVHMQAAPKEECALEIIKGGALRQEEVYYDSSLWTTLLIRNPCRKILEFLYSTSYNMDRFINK

With `CC1(C)[C@@H](OC(=O)CCC(=O)O)CC[C@]2(C)[C@H]3C(=O)C=C4[C@@H]5C[C@@](C)(C(=O)O)CC[C@]5(C)CC[C@@]4(C)[C@]3(C)CC[C@@H]12` [carbenoxolone], in data set [1], the “Effect of HSD inhibitor on steroid protection of transduced cells” value (“Effect of HSD inhibitor” below) is recorded as “reduced or eliminated”, the “Reversal of protection against dexamethasone by HSD inhibitor” value was “Protection was reversed” and the “Reversal of protection against prednisolone by HSD inhibitor” value is “Protection was reversed”. The “Effect of HSD inhibitor” value in data set [1] (listed as Carbenoxolone) is recorded as “showed a dose response effect”.

As for `CC[C@@H]([C@H](C)O)n1ncn(-c2ccc(N3CCN(c4ccc(OC[C@@H]5CO[C@@](Cn6cncn6)(c6ccc(F)cc6F)C5)cc4)CC3)cc2)c1=O` [posaconazole], in data set [1], the “Effect of HSD inhibitor” value is reported as “reduced or eliminated”, the “Reversal of protection against dexamethasone by HSD inhibitor” value is “Protection was reversed” and the “Reversal of protection against prednisolone by HSD inhibitor” value was “Protection was reversed”. In data set [2], the “Inhibition of HSD11B1 degradation of steroids” value is “also inhibited”; the “Inhibition of HSD11B1 depletion (conversion) of prednisolone and dexamethasone” value is “strongly inhibited”. In data set [3], the “Inhibition of steroid degradation by HSD11B2 genes (HSD11B2, B2-Tag and wtExon1-none)” value is listed as “inhibited”.

B1: wtExon1-none: modified HSD11B2 gene wherein approximately exon 1 was not codon modified but remained wild type (SEQ ID No.: 31) (nucleic acid)
DNA: CCCCTCACTCGGCGCGATCTAGATCTCGAATCGCCAGCCCGCTGGGCCGCCATGGAGCGCTGGCCTTGGCCGTCGGGCGGCGCCTGGCTGCTCGTGGCTGCCCGCGCGCTGCTGCAGCTGCTGCGCTCAGACCTGCGTCTGGGCCGCCCGCTGCTGGCGGCGCTGGCGCTGCTGGCCGCGCTCGACTGGCTGTGCCAGCGCCTGCTGCCCCCGCCGGCCGCACTCGCCGTGCTGGCCGCCGCCGGCTGGATCGCGTTGTCCCGCCTGGCGCGCCCGCAGCGCCTGCCGGTGGCCACTCGCGCGGTGCTCATCACCGGTTGTGACTCTGGTTTTGGTAAGGAGACGGCTAAGAAACTGGACTCCATGGGTTTCACGGTGCTGGCTACCGTATTGGAGTTGAACAGCCCTGGTGCTATCGAGCTGCGTACCTGCTGCTCCCCTCGTCTAAGGCTGCTGCAGATGGACCTGACCAAACCAGGAGACATTAGCCGTGTGCTAGAGTTCACCAAGGCTCACACCACCAGCACCGGTCTGTGGGGTCTCGTCAACAACGCAGGTCACAATGAAGTAGTTGCTGATGCAGAGCTGTCTCCAGTGGCTACTTTCCGTAGCTGCATGGAGGTGAATTTCTTTGGTGCACTCGAGCTGACCAAGGGTCTCCTGCCTCTGCTGCGTAGCTCAAGGGGTCGTATCGTGACTGTGGGAAGCCCAGCAGGAGACATGCCATATCCATGCTTGGGAGCTTATGGAACCTCCAAAGCAGCTGTGGCACTACTCATGGACACATTCAGCTGTGAACTCCTTCCTTGGGGAGTCAAGGTCAGCATCATCCAGCCTGGTTGCTTCAAGACAGAGTCAGTGAGAAACGTGGGTCAGTGGGAAAAGCGTAAGCAATTGCTGCTGGCTAACCTGCCTCAAGAGCTGCTGCAGGCTTACGGTAAGGACTACATCGAGCACTTGCATGGACAGTTCCTGCACTCGCTACGTCTGGCTATGTCCGACCTCACCCCAGTTGTAGATGCTATCACAGATGCACTGCTGGCAGCTAGGCCTCGTCGTCGTTATTACCCTGGTCAGGGTCTGGGACTCATGTACTTCATCCACTACTACCTGCCTGAAGGTCTGAGGCGTCGTTTCCTGCAGGCTTTCTTCATCAGTCACTGTCTGCCTCGAGCACTGCAGCCTGGTCAGCCTGGTACTACCCCACCACAGGACGCAGCTCAGGACCCAAACCTGAGCCCTGGTCCTTCCCCAGCAGTGGCTAGGTGACCTGAAAAAGGGGTACCTTTAAGACCAATGACTTACAAGGCAGCTGTAG
modifications: wtExon1-none
For B1, in data set [4] (cortisol 100 nM, ELISA), the “Cortisol levels at end of assay” value is on record as “below the limit of quantitation”. Also, the “Degradation of cortisol, prednisolone and dexamethasone” value in data set [4] (steroid 100 nM, 18 to 24 hours, adjusted for number of transgene bearing cells) is reported as “degraded the steroids”. Further, the “Rate of conversion of prednisolone or dexamethasone” value in data set [4] (transduced leukocytes) is listed as “at least 2000 pg/hour/10^5 of genetically modified leukocytes”. In data set [5] (UHPLC-Mass Spectrometry), the “Generation of cortisone from cortisol” value is on record as “generated cortisone”. For the same molecule, the “Rate of cortisol depletion indirectly calculated from cortisone production” value in data set [5] (assuming no inter-conversion) is on record as “about 1,014 pg/hr/10e5 copies of the transgene”. Further, the “Rate of conversion of cortisol to cortisone” value in data set [5] (transduced leukocytes) is given as 800-1200 pg/hour/10^5 of genetically modified leukocytes.

The values are drawn from patent US20210030802A1, “GLUCOCORTICOID-RESISTANT LEUKOCYTES AND THEIR USE IN THE TREATMENT OF CANCERS AND VIRUSES” (CONSTANT BIOTECHNOLOGY, LLC, priority 2018, published 2021).
